The values below come from article PMC10533412, “Phosphoantigens glue butyrophilin 3A1 and 2A1 to activate Vγ9Vδ2 T cells” (Nature, 2023).

Assay [1] addresses T1, preconditioned BTN2A1–BTN3A1 B30.2 complex (Homo sapiens, UniProt O00481+Q7KYR7).
T1 construct: The BTN3A1 B30.2 domain was expressed and purified as described previously; 6xHis; made in house; host or cells: Escherichia coli BL21 (DE3) for BTN2A1 B30.2
In words: ITC: pAg binding to the preconditioned BTN2A1 B30.2 and BTN3A1 B30.2 complex. The note with it: ITC; Supplementary Table 4; read-out: KD (M) for phosphoantigen binding to the pre-conditioned 2A1 B30.2 and 3A1 B30.2. As for the experimental part: ITC binding fits were calculated using MicroCal Analysis software.
For HMBPP binding to the preconditioned BTN2A1 B30.2 and BTN3A1 B30.2 complex, BTN2A1 B30.2 (20 µM) and BTN3A1 B30.2 (10 µM) were incubated in the buffer at a 2:1 ratio and loaded into the sample cell, and the injection syringe was filled with buffer containing 100 µM HMBPP.
For DMAPP/IPP binding to the preconditioned BTN2A1 B30.2 and BTN3A1 B30.2 complex, BTN2A1 B30.2 (200 µM) and BTN3A1 B30.2 (100 µM) were incubated in buffer at a 2:1 ratio and loaded into the sample cell, and the injection syringe was filled with buffer containing 1 mM DMAPP/IPP.
For other pAgs, their concentrations were adjusted to 500 µM, and BTN2A1 B30.2 and BTN3A1 B30.2 were adjusted to 100 µM and 50 µM at a 2:1 ratio.

A further assay has as its system MIA PaCa-2 cells. The assay is described as follows: Cell killing assay: cytotoxicity of Vγ9Vδ2 T cells towards pAg- or zoledronate-treated MIA PaCa-2 cells (luciferase). The format is cell-based, human. The note with it: Homo sapiens, MIA PaCa-2, Supplementary Table 4; read-out: EC50 (M) for MIA PaCa-2 cell lysis mediated by HMBPP analogs and Vγ9Vδ2 T cells.
In assay [2] the test system is BTN2A−/− MIA PaCa-2 (BTN2A1/BTN2A2 KO) cells. The assay is described as follows: Cell killing assay with BTN2A−/− MIA PaCa-2 (BTN2A1/BTN2A2 KO) cells expressing BTN2A1/BTN2A2 variants. As to conditions: cells expressing the BTN2A1 variant given as label; for Mean response (Fig. 6h, Dunnett test details): N = 6.
Description: (§1) MIA PaCa-2 cells were infected with lentivirus bearing luciferase transgene. Luciferase-positive cells were plated at 5.0 × 10^3 cells per well in 384-well plates 1 day before transfection. All plasmids were transfected into BTN2A^−/− MIA PaCa-2 (BTN2A1/BTN2A2 KO) cells using Lipofectamine 2000 reagent. […] Stable-lite luciferase (Vazyme) was added to each well and the luciferase signal was immediately measured by using the PerkinElmer EnVision microplate reader.
(§2) Percentage of lysis was calculated using the following equation: percentage of specific lysis = (maximum luciferase − experimental luciferase)/maximum luciferase × 100.

Values joined by “and” are separate entries in the source; they are usually repeats but may differ in a detail not shown here. Identical values can stand only once.

T1 sequence (O00481 322-513 limits assumed): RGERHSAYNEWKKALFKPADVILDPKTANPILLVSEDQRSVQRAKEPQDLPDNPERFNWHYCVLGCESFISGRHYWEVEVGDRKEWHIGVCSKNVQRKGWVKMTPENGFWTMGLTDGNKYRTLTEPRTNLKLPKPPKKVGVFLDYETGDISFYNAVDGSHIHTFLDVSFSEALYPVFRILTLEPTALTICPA
T1 sequence (Q7KYR7 316-527 limits assumed): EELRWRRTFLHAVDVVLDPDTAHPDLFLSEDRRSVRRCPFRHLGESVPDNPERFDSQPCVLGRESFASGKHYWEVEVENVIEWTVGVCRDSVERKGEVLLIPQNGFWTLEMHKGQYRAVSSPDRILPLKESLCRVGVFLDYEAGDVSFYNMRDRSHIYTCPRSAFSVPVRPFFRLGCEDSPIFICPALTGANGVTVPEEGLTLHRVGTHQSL
Description for MIA PaCa-2 cells: as §1, §2

A word on the Kd: it is a measure of binding affinity in units of concentration. As a reminder, the EC50 is the concentration at which the effect is half-maximal. For `C/C(=C\COP(=O)(O)OP(=O)(O)O)C(C)O` (centres unmarked) [Compound 6, (E)-4-hydroxy-3-methylpent-2-en-1-yl diphosphate], the dissociation constant (Kd) in assay [1] turned out to be 1.69e-05 M. Also, in the assay with MIA PaCa-2 cells, the 50% effective concentration (EC50) came to 1.8e-06 M.
Taken in the same sequence, the figures for `C/C(=C\COP(=O)(O)CP(=O)(O)O)CO` [Compound 7, (E)-((hydroxy((4-hydroxy-3-methylbut-2-en-1-yl)oxy)phosphoryl)methyl)phosphonic acid] were 4.62e-05 M and 1.46e-06 M.
Taken in the same sequence, the figures for `C/C(=C\COP(=O)(O)C(F)(F)P(=O)(O)O)CO` [Compound 10, (E)-(difluoro(hydroxy((4-hydroxy-3-methylbut-2-en-1-yl)oxy)phosphory)methyl)phosphonic acid] were 1.15e-05 M and 5.33e-06 M.
Taken in the same sequence, the figures for `C/C(=C\COP(=O)(O)C(Cl)P(=O)(O)O)CO` (centres unmarked) [Compound 9, (E)-(chloro(hydroxy((4-hydroxy-3-methylbut-2-en-1-yl)oxy)phosphoryl)methyl)phosphonic acid] were 4.97e-05 M and 3.5e-05 M.
On to `C=CC/C(=C\COP(=O)(O)OP(=O)(O)O)CO` [Compound 5, (E)-3-(hydroxymethyl)hexa-2,5-dienyl diphosphate], for which the Kd in assay [1] came to 2.06e-07 M. In addition, in the assay with MIA PaCa-2 cells, the EC50 amounted to 1.3e-08 M.
For the compound 2A1 WT, the “Mean response (Fig. 6h, Dunnett test details)” value in assay [2] (Row 1 (-6.4)) is 1.143; in assay [2] (Row 2 (-5.8)), 3.802; in assay [2] (Row 3 (-5.2)) it was 14.85; in assay [2] (Row 4 (-4.6)), 21.48; in assay [2] (Row 5 (-4)), 24.98. Moreover, the “Response, individual replicates (Fig. 6h source data)” value in assay [2] (x = -4 (log concentration; stimulant and units not given)) is 22.8101 and 22.1668 and 28.5464 and 27.6474 and 25.9163 and 22.7794; in assay [2] (x = -4.6 (log concentration; stimulant and units not given)), 21.6162 and 22.5956 and 18.2653 and 23.7306 and 21.555 and 21.0967; in assay [2] (x = -5.2 (log concentration; stimulant and units not given)), 14.9991 and 16.3572 and 11.8762 and 12.0557 and 14.1862 and 19.6027; in assay [2] (x = -5.8 (log concentration; stimulant and units not given)), 3.9587 and 2.199 and 2.053 and 2.932 and 3.753 and 7.914; in assay [2] (x = -6.4 (log concentration; stimulant and units not given)) it was 1.264 and 0.797 and 0.5929 and 0.7387 and 0.7679 and 2.697.
Consider `C/C(=C\COP(=O)(O)C(F)P(=O)(O)O)CO` (centres unmarked) [Compound 11, (E)-(fluoro(hydroxy((4-hydroxy-3-methylbut-2-en-1-yl)oxy)phosphoryl)methyl)phosphonic acid], for which, in assay [1], the Kd is 2.81e-05 M. The half-maximal effective concentration (EC50) with MIA PaCa-2 cells was determined as 8.71e-07 M.
In the same order, the values of `C/C(=C\COP(=O)(O)C(Cl)(Cl)P(=O)(O)O)CO` [Compound 8, (E)-(dichloro(hydroxy((4-hydroxy-3-methylbut-2-en-1yl)oxy)phosphoryl)methyl diphosphate] are 1.25e-05 M and 9.28e-07 M.
In the same order, the values of `CC/C(=C\COP(=O)(O)OP(=O)(O)O)CO` [Compound 4, (E)-4-hydroxy-3-ethyl-but-2-enyl diphosphate] are 3.26e-07 M and 4.5e-07 M.
